In patent US20250304620A1, “ANTIMICROBIAL PEPTIDE AND APPLICATION THEREOF” (priority 2023, published 2025):
Values after ≈ are worked out from the molar mass of the structure shown. Marks after values point to notes of the source that are not given here. Non-standard residues stand in square brackets, D forms with d. Residues, ends and D or L forms follow the SMILES beside them. d2Nal = N[C@H](Cc1ccc2ccccc2c1)C(=O)O

Key:
[1] = system: Shigella flexneri ATCC 12022; assay: MIC against clinically common bacterial strain; format: cell-based
Method in brief: (§1)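 Five parallel repeats; twofold dilution series of each peptide per US CLSI susceptibility protocol; endpoint = MIC.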

[2] = system: rabbit red blood cells; format: cell-based; details: red cells of rabbit, 1 h
[3] = Serum stability assay (residual level by RP-HPLC); details: human
[4] = system: Staphylococcus aureus ATCC 25923; format: cell-based
Method in brief: as §1

[5] = system: Serratia marcescens ATCC 29021; format: cell-based
Method in brief: as §1

[6] = system: Candida krusei ATCC 6258; format: cell-based
Method in brief: as §1

[7] = system: Salmonella typhimurium ATCC 14028; format: cell-based
Method in brief: as §1

[8] = system: Candida glabrata ATCC 15126; format: cell-based
Method in brief: as §1

[9] = system: Corynebacterium ATCC 7715; format: cell-based
Method in brief: as §1

[10] = system: Klebsiella pneumoniae ATCC 700603; format: cell-based
Method in brief: as §1

[11] = system: Candida albicans ATCC MYA-2876; format: cell-based
Method in brief: as §1

[12] = system: Pseudomonas aeruginosa ATCC 27853; format: cell-based
Method in brief: as §1

[13] = system: Candida utilis ATCC 9950; format: cell-based
Method in brief: as §1

[14] = system: Bacillus subtilis ATCC 6633; format: cell-based
Method in brief: as §1

[15] = system: carbapenem-resistant Escherichia coli (CREC); format: cell-based; details: carbapenem-resistant (CREC)
Method in brief: (§2)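 Antimicrobial peptide susceptibility is measured against clinically isolated resistant bacteria using the CLSI microdilution method.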

[16] = system: carbapenem-resistant Klebsiella pneumoniae (CRKP); format: cell-based; details: carbapenem-resistant (CRKP)
Method in brief: as §2

[17] = system: carbapenem-resistant Pseudomonas aeruginosa (CRPA); format: cell-based; details: carbapenem-resistant (CRPA)
Method in brief: as §2

[18] = system: vancomycin-resistant Enterococcus (VRE); format: cell-based
Method in brief: as §2

[19] = system: Methicillin-resistant Staphylococcus aureus (MRSA); format: cell-based; details: Methicillin-resistant
Method in brief: as §2

[20] = system: Pseudomonas aeruginosa ATCC 27853; assay: Injectable formulations on mice infected with peritonitis; format: in vivo, ICR mice; details: twice a day for 3 days; for Number of mice that died on each day after infection: day 1 / Number of mice that died on each day after infection: day 2 / Number of mice that died on each day after infection: day 3 / Number of mice that died on each day after infection: day 4 / Number of mice that died on each day after infection: day 5 / Average survival times (Days): n = 10; for Average survival times (Days): observed for 14 d; for survival time of mice infected with Pseudomonas aeruginosa: tail vein, observed 14 d
Method in brief: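 ICR mice of both sexes (10 per group) infected intraperitoneally with 0.2 mL P. aeruginosa ATCC 27853 at 1×10^9 CFU/mL. Injectable formulations dosed by body weight via tail vein twice daily for 3 days; deaths and survival time recorded over 14 d.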

SMILES | MIC Shigella flexneri ATCC 12022 [1] [mg/L] | MHC (minimum hemolytic concentration, lowest concentration causing 10% hemolysis) [2] [µg/mL] | remaining at 12 h, 0.91 mg/mL [3] [%] | MIC Staphylococcus aureus ATCC 25923 [4] [mg/L] | MIC Serratia marcescens ATCC 29021 [5] [mg/L] | MIC Candida krusei ATCC 6258 [6] [mg/L] | MIC Salmonella typhimurium ATCC 14028 [7] [mg/L] | MIC Candida glabrata ATCC 15126 [8] [mg/L] | MIC Corynebacterium ATCC 7715 [9] [mg/L] | MIC Klebsiella pneumoniae ATCC 700603 [10] [mg/L] | MIC Candida albicans ATCC MYA-2876 [11] [mg/L] | MIC Pseudomonas aeruginosa ATCC 27853 [12] [mg/L] | MIC Candida utilis ATCC 9950 [13] [mg/L] | MIC Bacillus subtilis ATCC 6633 [14] [mg/L] | MIC CREC [15] [mg/L] | MIC CRKP [16] [mg/L] | MIC CRPA [17] [mg/L] | MIC VRE [18] [mg/L] | MIC MRSA [19] [mg/L] | Number of mice that died on each day after infection: day 1 ([20]; 1 mg/kg via tail vein) [Mouse] | further results
CC(=O)N[C@H](CCCCN)C(=O)N[C@H](CCCCN)C(=O)N[C@H](CC(C)C)C(=O)N[C@H](CC(C)C)C(=O)N[C@H](Cc1ccc2ccccc2c1)C(=O)N[C@H](CCCNC(=N)N)C(=O)N[C@H](CC(C)C)C(=O)N[C@H](CCCCN)C(=O)N[C@H](Cc1ccc2ccccc2c1)C(=O)N[C@H](CCCNC(=N)N)C(=O)N[C@H](CCCCN)C(N)=O [LV-19] (Ac-[dK][dK][dL][dL][d2Nal][dR][dL][dK][d2Nal][dR][dK]-NH2) | 4 (≈ 2.47 µM) | >1000 | 98.1 | 1 (≈ 0.618 µM) | 8 (≈ 4.94 µM) | 16 (≈ 9.89 µM) | 2 (≈ 1.24 µM) | 8 (≈ 4.94 µM) | 2 (≈ 1.24 µM) | 2 (≈ 1.24 µM) | 8 (≈ 4.94 µM) | 1 (≈ 0.618 µM) | 8 (≈ 4.94 µM) | 8 (≈ 4.94 µM) | 8 (≈ 4.94 µM) | 4 (≈ 2.47 µM) | 2 (≈ 1.24 µM) | 4 (≈ 2.47 µM) | 4 (≈ 2.47 µM) | 0 | Number of mice that died on each day after infection: day 1 ([20]; 0.2 mg/kg via tail vein): 3 Mouse; Number of mice that died on each day after infection: day 2 ([20]; 0.2 mg/kg via tail vein): 2 Mouse; Number of mice that died on each day after infection: day 3 ([20]; 0.2 mg/kg via tail vein): 0 Mouse; Number of mice that died on each day after infection: day 4 ([20]; 0.2 mg/kg via tail vein): 0 Mouse; Number of mice that died on each day after infection: day 5 ([20]; 0.2 mg/kg via tail vein): 0 Mouse; Average survival times (Days) ([20]; 0.2 mg/kg via tail vein): 7.7** Days; Number of mice that died on each day after infection: day 2 ([20]; 1 mg/kg via tail vein): 0 Mouse; Number of mice that died on each day after infection: day 3 ([20]; 1 mg/kg via tail vein): 1 Mouse; Number of mice that died on each day after infection: day 4 ([20]; 1 mg/kg via tail vein): 0 Mouse; Number of mice that died on each day after infection: day 5 ([20]; 1 mg/kg via tail vein): 2 Mouse; Average survival times (Days) ([20]; 1 mg/kg via tail vein): 11.1**** Days; Number of mice that died on each day after infection: day 1 ([20]; 5 mg/kg via tail vein): 1 Mouse; Number of mice that died on each day after infection: day 2 ([20]; 5 mg/kg via tail vein): 0 Mouse; Number of mice that died on each day after infection: day 3 ([20]; 5 mg/kg via tail vein): 2 Mouse; Number of mice that died on each day after infection: day 4 ([20]; 5 mg/kg via tail vein): 0 Mouse; Number of mice that died on each day after infection: day 5 ([20]; 5 mg/kg via tail vein): 0 Mouse; Average survival times (Days) ([20]; 5 mg/kg via tail vein): 10.5**** Days; survival time of mice infected with Pseudomonas aeruginosa [20]: superior to those of the Levofloxacin group
CC(=O)N[C@H](CCCNC(=N)N)C(=O)N[C@H](CCCCN)C(=O)N[C@H](CC(C)C)C(=O)N[C@H](CC(C)C)C(=O)N[C@H](Cc1ccc2ccccc2c1)C(=O)N[C@H](CCCNC(=N)N)C(=O)N[C@H](CC(C)C)C(=O)N[C@H](CCCCN)C(=O)N[C@H](Cc1ccc2ccccc2c1)C(=O)N[C@H](CCCNC(=N)N)C(=O)N[C@H](CCCCN)C(N)=O [LV-20] (Ac-[dR][dK][dL][dL][d2Nal][dR][dL][dK][d2Nal][dR][dK]-NH2) | 4 (≈ 2.43 µM) | >1000 | 98.2 | 1 (≈ 0.607 µM) | 2 (≈ 1.21 µM) | 8 (≈ 4.86 µM) | 1 (≈ 0.607 µM) | 8 (≈ 4.86 µM) | 2 (≈ 1.21 µM) | 2 (≈ 1.21 µM) | 4 (≈ 2.43 µM) | 1 (≈ 0.607 µM) | 8 (≈ 4.86 µM) | 2 (≈ 1.21 µM) | 8 (≈ 4.86 µM) | 8 (≈ 4.86 µM) | 4 (≈ 2.43 µM) | 4 (≈ 2.43 µM) | 2 (≈ 1.21 µM) | 1 | Number of mice that died on each day after infection: day 1 ([20]; 0.2 mg/kg via tail vein): 2 Mouse; Number of mice that died on each day after infection: day 2 ([20]; 0.2 mg/kg via tail vein): 1 Mouse; Number of mice that died on each day after infection: day 3 ([20]; 0.2 mg/kg via tail vein): 2 Mouse; Number of mice that died on each day after infection: day 4 ([20]; 0.2 mg/kg via tail vein): 1 Mouse; Number of mice that died on each day after infection: day 5 ([20]; 0.2 mg/kg via tail vein): 0 Mouse; Average survival times (Days) ([20]; 0.2 mg/kg via tail vein): 7.0** Days; Number of mice that died on each day after infection: day 2 ([20]; 1 mg/kg via tail vein): 1 Mouse; Number of mice that died on each day after infection: day 3 ([20]; 1 mg/kg via tail vein): 1 Mouse; Number of mice that died on each day after infection: day 4 ([20]; 1 mg/kg via tail vein): 0 Mouse; Number of mice that died on each day after infection: day 5 ([20]; 1 mg/kg via tail vein): 0 Mouse; Average survival times (Days) ([20]; 1 mg/kg via tail vein): 10.4**** Days; Number of mice that died on each day after infection: day 1 ([20]; 5 mg/kg via tail vein): 1 Mouse; Number of mice that died on each day after infection: day 2 ([20]; 5 mg/kg via tail vein): 2 Mouse; Number of mice that died on each day after infection: day 3 ([20]; 5 mg/kg via tail vein): 0 Mouse; Number of mice that died on each day after infection: day 4 ([20]; 5 mg/kg via tail vein): 0 Mouse; Number of mice that died on each day after infection: day 5 ([20]; 5 mg/kg via tail vein): 0 Mouse; Average survival times (Days) ([20]; 5 mg/kg via tail vein): 10.3**** Days; survival time of mice infected with Pseudomonas aeruginosa [20]: superior to those of the Levofloxacin group
CC(=O)N[C@H](CCCNC(=N)N)C(=O)N[C@H](CCCNC(=N)N)C(=O)N[C@H](CC(C)C)C(=O)N[C@H](CC(C)C)C(=O)N[C@H](Cc1ccc2ccccc2c1)C(=O)N[C@H](CCCNC(=N)N)C(=O)N[C@H](CC(C)C)C(=O)N[C@H](CCCCN)C(=O)N[C@H](Cc1ccc2ccccc2c1)C(=O)N[C@H](CCCNC(=N)N)C(=O)N[C@H](CCCCN)C(N)=O [LV-21] (Ac-[dR][dR][dL][dL][d2Nal][dR][dL][dK][d2Nal][dR][dK]-NH2) | 2 (≈ 1.19 µM) | >1000 | 97.9 | 1 (≈ 0.597 µM) | 4 (≈ 2.39 µM) | 4 (≈ 2.39 µM) | 2 (≈ 1.19 µM) | 16 (≈ 9.56 µM) | 4 (≈ 2.39 µM) | 4 (≈ 2.39 µM) | 8 (≈ 4.78 µM) | 2 (≈ 1.19 µM) | 8 (≈ 4.78 µM) | 2 (≈ 1.19 µM) | 2 (≈ 1.19 µM) | 2 (≈ 1.19 µM) | 4 (≈ 2.39 µM) | 2 (≈ 1.19 µM) | 4 (≈ 2.39 µM) | 2 | Number of mice that died on each day after infection: day 2 ([20]; 1 mg/kg via tail vein): 0 Mouse; Number of mice that died on each day after infection: day 3 ([20]; 1 mg/kg via tail vein): 2 Mouse; Number of mice that died on each day after infection: day 4 ([20]; 1 mg/kg via tail vein): 0 Mouse; Number of mice that died on each day after infection: day 5 ([20]; 1 mg/kg via tail vein): 0 Mouse; Average survival times (Days) ([20]; 1 mg/kg via tail vein): 9.2*** Days
CC(=O)N[C@H](CCCNC(=N)N)C(=O)N[C@H](CCCCN)C(=O)N[C@H](CC(C)C)C(=O)N[C@H](CC(C)C)C(=O)N[C@H](Cc1ccc2ccccc2c1)C(=O)N[C@H](CCCNC(=N)N)C(=O)N[C@H](CC(C)C)C(=O)N[C@H](CCCCN)C(=O)N[C@H](Cc1ccc2ccccc2c1)C(=O)N[C@H](CCCNC(=N)N)C(=O)N[C@H](CCCNC(=N)N)C(N)=O [LV-22] (Ac-[dR][dK][dL][dL][d2Nal][dR][dL][dK][d2Nal][dR][dR]-NH2) | 4 (≈ 2.39 µM) | >1000 | 97.2 | 1 (≈ 0.597 µM) | 4 (≈ 2.39 µM) | 8 (≈ 4.78 µM) | 4 (≈ 2.39 µM) | 8 (≈ 4.78 µM) | 4 (≈ 2.39 µM) | 2 (≈ 1.19 µM) | 8 (≈ 4.78 µM) | 2 (≈ 1.19 µM) | 16 (≈ 9.56 µM) | 4 (≈ 2.39 µM) | 8 (≈ 4.78 µM) | 2 (≈ 1.19 µM) | 8 (≈ 4.78 µM) | 4 (≈ 2.39 µM) | 2 (≈ 1.19 µM) | 1 | Number of mice that died on each day after infection: day 2 ([20]; 1 mg/kg via tail vein): 1 Mouse; Number of mice that died on each day after infection: day 3 ([20]; 1 mg/kg via tail vein): 0 Mouse; Number of mice that died on each day after infection: day 4 ([20]; 1 mg/kg via tail vein): 1 Mouse; Number of mice that died on each day after infection: day 5 ([20]; 1 mg/kg via tail vein): 1 Mouse; Average survival times (Days) ([20]; 1 mg/kg via tail vein): 9.6*** Days
